Here are results for 81 compounds from the METLIN SMRT retention time set (Domingo-Almenara et al. 2019).

This series in a line: gradient 5% acetonitrile 3 min, to 50% in 2 min, to 85% in 15 min, held 3 min, 100 µL/min. Conditions: column: Zorbax Extend-C18 2.1 x 50 mm; eluents: water / acetonitrile, 0.1% formic acid. The gist of the method:
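Mixtures of ~100 pure standards were chromatographed on a Zorbax Extend-C18 column (2.1 × 50 mm, 1.8 μm) at 100 μL/min using water and acetonitrile, each with 0.1% formic acid. Detection used a quadrupole time-of-flight mass spectrometer in positive and negative ionization mode, and data collection spanned 3 months. Retention time was obtained from adduct peaks picked computationally and each checked manually.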
As for `Cn1nc(-c2nc(-c3cccc(Cl)c3)no2)ccc1=O`, the RP-LC retention time came out at 942 s. `CCc1cc(=O)n(CC(=O)Nc2cccc(C#N)c2)c(-c2ccccc2)n1` came in with an RP-LC retention time of 1080 s. Consider `Cc1ccc2oc(N3CCCN(C(=O)c4ccc(-c5noc(C(C)C)n5)cc4)CC3)nc2n1`, for which the RP-LC retention time is 664 s. Compound `COC(=O)CNC(=O)N1CCCC1c1ccc(C)cc1` (stereo unspecified) displayed an RP-LC retention time of 739 s. Consider `Cn1nc(N2CCCC(NS(=O)(=O)c3cccc4cccnc34)C2)ccc1=O` (stereo unspecified), for which the RP-LC retention time was 698 s. On to `CCn1cnc(S(=O)(=O)N2CCC(C(=O)NCc3ccc(N(C)C)cc3)CC2)c1`, for which the RP-LC retention time worked out at 567 s. `Cc1nn(-c2nc(-c3ccc(Cl)cc3)cs2)c(C)c1CC(=O)N1CCCCC1` returned an RP-LC retention time of 1260 s. In turn, `Cc1ccc2oc(=O)c3cc(C(=O)N4CCN(c5ccccn5)CC4)sc3c2c1` returned an RP-LC retention time of 664 s. As to `COc1ccc(N2C(=O)CCS2(=O)=O)cc1S(=O)(=O)N1CCC(C(N)=O)CC1`, the RP-LC retention time came to 612 s. Then `Cc1cnn(Cc2nc(-c3ccc(NC(=O)C4CCCC4)cc3)oc2C)c1`, with 905 s. On to `CC(C)Cn1cc(S(=O)(=O)NC2CCCCCC2)c2cccnc21`, for which the RP-LC retention time was determined as 1060 s. With `COc1ccc(CNC(=O)Cn2c(=O)c3c(C(=O)N4CCCCC4)cc(C)nc3n(C)c2=O)cc1`, the RP-LC retention time amounted to 761 s. For `N#CCn1nc2n(c1=O)CCN(S(=O)(=O)c1cccc3cccnc13)CC2`, the RP-LC retention time worked out at 702 s.

`COc1ccc(-c2nnc(-c3ccc(OC)c(S(=O)(=O)N4CCOCC4)c3)o2)cc1OC`: the RP-LC retention time amounted to 768 s.

For the compound `CCn1cc(C)c(C(=O)O)c1CC(=O)N1CCOCC1`, the RP-LC retention time was determined as 619 s.

`CSC[C@H]1O[C@@H](n2cnc3c(N)ncnc32)[C@@H](O)[C@H]1O` showed an RP-LC retention time of 575 s. Then `CCOC(=O)C(Cc1c[nH]c2ccccc12)NC(=O)COc1ccc(Cl)cc1` (stereo unspecified), with 1010 s. Consider `COc1ccc(C2Cn3cnc(C(=O)N4CCC(C(=O)NC5CC5)CC4)c3CO2)cc1` (stereo unspecified), for which the RP-LC retention time is 648 s. Then `CC(=O)Nc1ccc(-c2noc(C3CCCN(C(=O)c4ccsc4)C3)n2)cc1` (stereo unspecified), with 766 s.

For `CCNc1cc(N2CCCC(CCC(=O)N3CCCC(CN4CCCC4)C3)C2)ncn1` (stereo unspecified), the RP-LC retention time was found to be 571 s. Compound `O=C(NC1CCCCCC1)C1CCCN(c2nccnc2Sc2ccccc2)C1` (stereo unspecified) displayed an RP-LC retention time of 1170 s. On to `CCc1nc2onc(C)c2c(=O)n1CC(=O)NCc1ccccc1F`, for which the RP-LC retention time turned out to be 792 s. In turn, `COc1ccc(C2Cn3nnc(C(=O)NCc4cc(OC)ccc4OC)c3CO2)cc1` (stereo unspecified) came in with an RP-LC retention time of 926 s.

Consider `N#Cc1ccc(CN2CCCC2=O)cc1`, for which the RP-LC retention time amounted to 658 s. The compound `COc1ccc(N2CC(c3nc(-c4ccc5c(c4)OCO5)no3)CC2=O)cc1OC` (stereo unspecified) yielded an RP-LC retention time of 824 s. Compound `CC1CCCN(c2ccc(-c3noc(CN4CCc5ccccc5C4)n3)cn2)C1` (stereo unspecified) showed an RP-LC retention time of 970 s. `COc1ccc(-c2nc3ccc(Cl)cn3c2Nc2ccccc2C)cc1`: the RP-LC retention time came out at 832 s. `CCOc1ccccc1N1CCN(Cc2nc(-c3ccc(N4CCCC4)nc3)no2)CC1` registered an RP-LC retention time of 651 s.

`CS(=O)(=O)N1CCCCC1c1nncn1Cc1ccccc1` (stereo unspecified): the RP-LC retention time amounted to 691 s. Regarding `COc1ccc2c(c1)C1(CCN(S(=O)(=O)c3cccc(F)c3)C1)C(=O)N2C` (stereo unspecified), the RP-LC retention time turned out to be 874 s. Take `CCn1nccc1C(=O)N1CC(Oc2ccc(-c3nc(C)no3)cc2)C1`: the RP-LC retention time turned out to be 800 s. Under `CCC(CN1CCOCC1)NC(=O)c1c2c(cn(-c3ccccc3)c1=O)C(=O)CC(C)(C)C2` (stereo unspecified) stands 661 s; under `COc1ccc(-c2c(C)noc2NC(C)=O)cc1S(=O)(=O)Nc1cc(OC)c(OC)c(OC)c1`, 687 s; under `Cn1nc(C(=O)N2CCCCC2)c2c1CCN(C(=O)CCC(=O)NCCCN1CCCC1)C2`, 579 s. `Cc1cccc(NC(=O)Cn2c(=O)n(-c3ccccc3)c3ncccc32)c1C` displayed an RP-LC retention time of 832 s. In turn, `O=C(NCc1nnnn1C1CCCCC1)c1ccc(Br)o1` showed an RP-LC retention time of 738 s. Turning to `CC(C)NC(=O)C1CCN(C(=O)c2ncn3c2COC(c2ccc(F)cc2)C3)CC1` (stereo unspecified), the RP-LC retention time came to 679 s. In turn, `Cc1cc(C(F)(F)F)nn1CC(=O)N1CCc2nn(CC3CC3)c(=O)n2CC1` yielded an RP-LC retention time of 712 s.

`COC(=O)Nc1nc2ccc(Br)cc2[nH]1`: the RP-LC retention time came to 642 s. Turning to `CC1(C)CC(=O)c2cn(-c3ccccc3)c(=O)c(C(=O)N3CCC(N4CCCCC4)CC3)c2C1`, the RP-LC retention time was found to be 622 s.

Regarding `CCCN(C)c1nccnc1OC1CCN(C(=O)C2CCCCC2)C1` (stereo unspecified), the RP-LC retention time was found to be 938 s. As for `CCOC(=O)c1ccc(Nc2c(C(=O)N3CCCCC3C)cnc3nc(C)ccc23)cc1` (stereo unspecified), the RP-LC retention time was 653 s. `Cc1cccn2c(Nc3ccc4c(c3)OCCO4)c(-c3ccccc3O)nc12` displayed an RP-LC retention time of 719 s. The compound `Cc1ccc(S(=O)(=O)N2CCC3(CC2)NCCN=C3NCc2ccc(F)cc2)cc1C` showed an RP-LC retention time of 757 s. `O=C(NCC1CCOCC1)Nc1ccccc1Br`: the RP-LC retention time came out at 740 s.

`Cc1ccc(CNC(=O)C2(C)CN(S(C)(=O)=O)CC(=O)N2c2cc(Cl)ccc2C)cc1` (stereo unspecified) had an RP-LC retention time of 829 s. The compound `Cc1ccc(C)c(NC(=O)N2CCc3nc(-c4ccccc4)ncc3C2)c1` had an RP-LC retention time of 924 s. On to `COCCC1CCN(C(=O)COc2cccc(Cl)c2)CC1`, for which the RP-LC retention time turned out to be 855 s. Then `Cc1cccc(C)c1NS(=O)(=O)c1cc(-c2cc(C(F)(F)F)on2)sc1C`, with 1230 s; and `O=C(CCc1csc(NC(=O)c2cccs2)n1)Nc1ccc2c(c1)OCCO2`, with 733 s; and `COc1ccc(C2C(C(=O)NCCCN3CCCCCC3)CCC(=O)N2c2ccc(OC)cc2)cc1` (stereo unspecified), with 589 s. In the case of `CC(C)C(=O)n1nc(-c2ccccc2)nc1N`, the RP-LC retention time was 888 s.

As to `CNC(=O)N1CCCC(c2cccc(C(=O)NCc3cccs3)c2)C1` (stereo unspecified), the RP-LC retention time was 719 s. Compound `CCN(CC)S(=O)(=O)c1cccc(-c2nnc(-c3ccccc3Br)o2)c1` came in with an RP-LC retention time of 1100 s. The compound `CN1CCCN(C(=O)C2CC(=O)N(c3ccc4c(c3)CCN4C(=O)C3CC3)C2)CC1` (stereo unspecified) returned an RP-LC retention time of 564 s.

`O=C(NCc1ccc(-c2noc(-c3cc(F)cc(F)c3)n2)s1)C1CC1` came in with an RP-LC retention time of 952 s. Consider `Cc1cc(CNC(=O)c2cnccn2)no1`, for which the RP-LC retention time was found to be 577 s. Compound `CCOc1ccccc1CNC(=O)C1CCN(S(=O)(=O)c2cn(C(C)C)cn2)CC1` had an RP-LC retention time of 779 s. Under `Cc1cc(C)n(-c2ccnc(N3CCC(C(=O)NCc4cccnc4)CC3)n2)n1` stands 612 s. With `COc1ccccc1NC(=O)N1CCC(CNS(=O)(=O)Cc2cccc(F)c2)CC1`, the RP-LC retention time turned out to be 787 s. Regarding `Oc1cc2c(c(Cl)c1O)CCNCC2c1ccccc1` (stereo unspecified), the RP-LC retention time amounted to 618 s. For `Cc1sc2ncnc(N3CCCC(C)C3)c2c1C(=O)Nc1ccc(Cl)cc1` (stereo unspecified), the RP-LC retention time is 1290 s.

In turn, `CCC(=O)NCc1nc2c(n1CC)CN(C(=O)c1cc(C)cc(C)c1)CC2` yielded an RP-LC retention time of 620 s. `O=C(c1cccnc1)N1CCC2(CC1)N=C(c1ccc(Cl)cc1)NO2` displayed an RP-LC retention time of 682 s. The compound `Cc1cc(N2CCC(NC(=O)Nc3ccccc3)C2=O)ccc1F` (stereo unspecified) yielded an RP-LC retention time of 824 s. Compound `COc1cc(C(=O)N2CCC[C@@H]2C(=O)NCc2csc(-c3ccccc3)n2)cc(OC)c1OC` returned an RP-LC retention time of 769 s.

`CCn1cnc2ccc(C(=O)NC(C)C)cc2c1=O` showed an RP-LC retention time of 628 s.

`COCCNC(=O)CCc1cc2ccc(C)cc2[nH]c1=O` showed an RP-LC retention time of 614 s. As to `Cc1ccc(N2CCC(NC(=O)Nc3cc(C)ccc3C)C2=O)cc1` (stereo unspecified), the RP-LC retention time is 618 s. Under `CCNC(=O)c1[nH]c2ccccc2c1N1CCCC1=O` stands 657 s; under `O=C(NC1CCN(c2cc(-c3cccs3)[nH]n2)C1)c1cccc2[nH]ccc12` (stereo unspecified), 672 s. Under `Cc1ccc(NC(=O)C2CCCN(S(=O)(=O)c3cn(C(C)C)cn3)C2)c(Br)c1` (stereo unspecified) stands 850 s. Under `CCOc1ccc(-c2noc(C3CC(=O)N(c4ccc(C)cc4)C3)n2)cc1` (stereo unspecified) stands 1080 s; under `CCCN1CCN(S(=O)(=O)c2cc(-c3nnc(C4CCC4)o3)co2)CC1`, 622 s; under `CCCN1CCN(C(=O)C2CCN(S(=O)(=O)c3ccc4c(c3)sc(=O)n4CC)CC2)CC1`, 623 s. In turn, `CCCOc1ccc(CNC(=O)C2CCN(c3ncnc4c3oc3ccccc34)CC2)cc1` yielded an RP-LC retention time of 841 s.

`COc1cc(-c2nnc(SCc3c(F)cccc3Cl)o2)cc(OC)c1OC`: the RP-LC retention time came to 1070 s. Under `CCC(=O)N1CCc2ccccc2C1C(=O)NCc1ccc(SC)cc1` (stereo unspecified) stands 853 s; under `Cc1ccc(NC(=O)C2CCCN(C(=O)C3Sc4ccccc4NC3=O)C2)cc1F` (stereo unspecified), 844 s; under `CCOC(=O)Cn1c(C2CC(=O)N(c3cccc(SC)c3)C2)nc2ccccc21` (stereo unspecified), 852 s. Turning to `O=C(Nc1ccc(F)cc1F)c1cnc(-c2ccccc2)nc1-c1ccncc1`, the RP-LC retention time stood at 874 s.
